Source: paper PMC9322123, “Design and Synthesis of New Pyrimidine-Quinolone Hybrids as Novel hLDHA Inhibitors” (Pharmaceuticals, 2022)
“Also recorded” adds a separate entry of the source.

Biological target: T1, hLDHA (Homo sapiens, UniProt P00338)
T1 construct: purchased Abcam
Test: hLDHA enzymatic assay (kinetic fluorometric, pyruvate substrate, NADH co-factor)
Type: biochemical
Conditions: not given
Protocol: The inhibitory activity of the pyrimidine-quinolone hybrids 10, 15, 19, and 24–31(a–c) against the hLDHA enzyme was measured by a kinetic spectrofluorometric assay.
hLDHA activity was determined throughout a fluorometric method with pyruvate as substrate and NADH co-factor, as previously reported and modified as described here: in each well, the final volume was set to 200 µL, and the final concentrations were 100 mM potassium phosphate buffer, 0.041 units/mL hLDHA (95%, specific activity >300 units/mg and concentration of 0.5 mg/mL, Abcam, Cambridge, United Kingdom), 151 µM β-NADH, 1 mM pyruvate (saturated conditions), and DMSO solutions (2%, v/v) of pure compounds at concentrations in the range of 0.048–100 µM. The reaction was initiated by the addition of pyruvate, and the NADH concentration decrease was measured for 10 min in a TECAN Infinite 200 Pro M Plex fluorescence plate reader at 28 °C, with excitation at 340 nm and emission at 460 nm. The percentage of activity for each measure was calculated by comparison between the maximum slope of each compound concentration and the maximum slope when no inhibitor (DMSO only) was in the well (100% enzymatic activity). The compound 3-[[3[(cyclopropylamino)sulfonyl]-7-(2,4-dimethoxy-5-pyrimidinyl)-4-quinolinyl]amino]-5-(3,5-difluorophenoxy)benzoic acid (GSK 2837808 A, Tocris, Minneapolis, MN, USA) was used as a positive control.
The measurements were obtained thrice, and data were expressed as the mean ± SD of n = 3 replicates for IC50 values. As-obtained data were later plotted in GraphPad Prism version 5.00 for Windows (GraphPad Software, La Jolla, CA, USA). Nonlinear regression analysis was chosen for dose response curve, representing the logarithm of inhibitor concentration vs. normalized enzymatic activity in order to calculate IC50 values.

Compound | inhibitory activity against hLDHA (in words)
O=c1[nH]c2ccccc2cc1CSc1ccc(Nc2nccc(-c3ccc4c(c3)OCO4)n2)cc1 [Compound 31a, 3-(((4-((4-(Benzo[d][1,3]dioxol-5-yl)pyrimidin-2-yl)amino)phenyl)thio)methyl)quinolin-2(1H)-one] | inactive
COc1ccc2[nH]c(=O)c(CSc3ccc(Nc4nccc(-c5ccc6c(c5)OCO6)n4)cc3)cc2c1 [Compound 31c, 3-(((4-((4-(Benzo[d][1,3]dioxol-5-yl)pyrimidin-2-yl)amino)phenyl)thio)methyl)-6-methoxyquinolin-2(1H)-one] | inactive

Same assay, conditions: hLDHA, 1 mM pyruvate, 151 µM β-NADH, compounds 0.048–100 µM, n = 3

Compound | IC50 [µM]
O=c1[nH]c2ccccc2cc1COc1ccc(Nc2nccc(-c3ccc(Cl)cc3)n2)cc1 [Compound 15, 3-((4-((4-(4-Chlorophenyl)pyrimidin-2-yl)amino)phenoxy)methyl)quinolin-2(1H)-one] | > 100
O=c1[nH]c2ccccc2cc1COc1ccccc1Oc1nccc(-c2ccc(Cl)cc2)n1 [Compound 19, 3-((2-((4-(4-Chlorophenyl)pyrimidin-2-yl)oxy)phenoxy)methyl)quinolin-2(1H)-one] | > 100
O=c1[nH]c2ccccc2cc1CSc1ccccc1Nc1nccc(-c2ccc(Cl)cc2)n1 [Compound 24a, 3-(((2-((4-(4-Chlorophenyl)pyrimidin-2-yl)amino)phenyl)thio)methyl)quinolin-2(1H)-one] | 31.5
O=c1[nH]c2ccc(Cl)cc2cc1CSc1ccccc1Nc1nccc(-c2ccc(Cl)cc2)n1 [Compound 24b, 6-Chloro-3-(((2-((4-(4-chlorophenyl)pyrimidin-2-yl)amino)phenyl)thio)meth-yl)quinolin-2(1H)-one] | 34.8
COc1ccc2[nH]c(=O)c(CSc3ccccc3Nc3nccc(-c4ccc(Cl)cc4)n3)cc2c1 [Compound 24c, 3-(((2-((4-(4-Chlorophenyl)pyrimidin-2-yl)amino)phenyl)thio)methyl)-6-methoxyquinolin-2(1H)-one] | 79.1
O=c1[nH]c2ccccc2cc1CSc1ccccc1Nc1nccc(-c2ccc(C(F)(F)F)cc2)n1 [Compound 25a, 3-(((2-((4-(4-(Trifluoromethyl)phenyl)pyrimidin-2-yl)amino)phenyl)thio)methyl)quinolin-2(1H)-one] | 26.9
O=c1[nH]c2ccc(Cl)cc2cc1CSc1ccccc1Nc1nccc(-c2ccc(C(F)(F)F)cc2)n1 [Compound 25b, 6-Chloro-3-(((2-((4-(4-(trifluoromethyl)phenyl)pyrimidin-2-yl)amino)phenyl)thio)methyl)quinolin-2(1H)-one] | 42.3
COc1ccc2[nH]c(=O)c(CSc3ccccc3Nc3nccc(-c4ccc(C(F)(F)F)cc4)n3)cc2c1 [Compound 25c, 6-Methoxy-3-(((2-((4-(4-(trifluoromethyl)phenyl)pyrimidin-2-yl)amino)phenyl)thio)methyl)quinolin-2(1H)-one] | 71.8
O=c1[nH]c2ccccc2cc1CSc1ccccc1Nc1nccc(-c2ccc3ccccc3c2)n1 [Compound 26a, 3-(((2-((4-(Naphthalen-2-yl)pyrimidin-2-yl)amino)phenyl)thio)methyl)quinolin-2(1H)-one] | 17.8
O=c1[nH]c2ccc(Cl)cc2cc1CSc1ccccc1Nc1nccc(-c2ccc3ccccc3c2)n1 [Compound 26b, 6-Chloro-3-(((2-((4-(naphthalen-2-yl)pyrimidin-2-yl)amino)phenyl)thio)me-thyl)quinolin-2(1H)-one] | 20.3
COc1ccc2[nH]c(=O)c(CSc3ccccc3Nc3nccc(-c4ccc5ccccc5c4)n3)cc2c1 [Compound 26c, 6-Methoxy-3-(((2-((4-(naphthalen-2-yl)pyrimidin-2-yl)amino)phenyl)thio)methyl)quinolin-2(1H)-one] | 27.7
O=c1[nH]c2ccccc2cc1CSc1ccccc1Nc1nccc(-c2ccc3c(c2)OCO3)n1 [Compound 27a, 3-(((2-((4-(Benzo[d][1,3]dioxol-5-yl)pyrimidin-2-yl)amino)phenyl)thio)methyl)quinolin-2(1H)-one] | > 100
O=c1[nH]c2ccc(Cl)cc2cc1CSc1ccccc1Nc1nccc(-c2ccc3c(c2)OCO3)n1 [Compound 27b, 3-(((2-((4-(Benzo[d][1,3]dioxol-5-yl)pyrimidin-2-yl)amino)phenyl)thio)methyl)-6-chloroquinolin-2(1H)-one] | 89
COc1ccc2[nH]c(=O)c(CSc3ccccc3Nc3nccc(-c4ccc5c(c4)OCO5)n3)cc2c1 [Compound 27c, 3-(((2-((4-(Benzo[d][1,3]dioxol-5-yl)pyrimidin-2-yl)amino)phenyl)thio)methyl)-6-methoxyquinolin-2(1H)-one] | 60
O=c1[nH]c2ccccc2cc1CSc1ccc(Nc2nccc(-c3ccc(Cl)cc3)n2)cc1 [Compound 28a, 3-(((4-((4-(4-Chlorophenyl)pyrimidin-2-yl)amino)phenyl)thio)methyl)quinolin-2(1H)-one] | > 100
O=c1[nH]c2ccc(Cl)cc2cc1CSc1ccc(Nc2nccc(-c3ccc(Cl)cc3)n2)cc1 [Compound 28b, 6-Chloro-3-(((4-((4-(4-chlorophenyl)pyrimidin-2-yl)amino)phenyl)thio)meth-yl)quinolin-2(1H)-one] | > 100
COc1ccc2[nH]c(=O)c(CSc3ccc(Nc4nccc(-c5ccc(Cl)cc5)n4)cc3)cc2c1 [Compound 28c, 3-(((4-((4-(4-Chlorophenyl)pyrimidin-2-yl)amino)phenyl)thio)methyl)-6-methoxyquinolin-2(1H)-one] | > 100
O=c1[nH]c2ccccc2cc1CSc1ccc(Nc2nccc(-c3ccc(C(F)(F)F)cc3)n2)cc1 [Compound 29a, 3-(((4-((4-(4-(Trifluoromethyl)phenyl)pyrimidin-2-yl)amino)phenyl)thio)methyl)quinolin-2(1H)-one] | > 100
O=c1[nH]c2ccc(Cl)cc2cc1CSc1ccc(Nc2nccc(-c3ccc(C(F)(F)F)cc3)n2)cc1 [Compound 29b, 6-Chloro-3-(((4-((4-(4-(trifluoromethyl)phenyl)pyrimidin-2-yl)amino)phenyl)thio)methyl)quinolin-2(1H)-one] | 83.2
COc1ccc2[nH]c(=O)c(CSc3ccc(Nc4nccc(-c5ccc(C(F)(F)F)cc5)n4)cc3)cc2c1 [Compound 29c, 6-Methoxy-3-(((4-((4-(4-(trifluoromethyl)phenyl)pyrimidin-2-yl)amino)phenyl)thio)methyl)quinolin-2(1H)-one] | > 100
O=c1[nH]c2ccccc2cc1CSc1ccc(Nc2nccc(-c3ccc4ccccc4c3)n2)cc1 [Compound 30a, 3-(((4-((4-(Naphthalen-2-yl)pyrimidin-2-yl)amino)phenyl)thio)methyl)quinolin-2(1H)-one] | 62.9
O=c1[nH]c2ccc(Cl)cc2cc1CSc1ccc(Nc2nccc(-c3ccc4ccccc4c3)n2)cc1 [Compound 30b, 6-Chloro-3-(((4-((4-(naphthalen-2-yl)pyrimidin-2-yl)amino)phenyl)thio)methyl)quinolin-2(1H)-one] | > 100
COc1ccc2[nH]c(=O)c(CSc3ccc(Nc4nccc(-c5ccc6ccccc6c5)n4)cc3)cc2c1 [Compound 30c, 6-Methoxy-3-(((4-((4-(naphthalen-2-yl)pyrimidin-2-yl)amino)phenyl)thio)methyl)quinolin-2(1H)-one] | > 100
O=c1[nH]c2ccccc2cc1CSc1ccc(Nc2nccc(-c3ccc4c(c3)OCO4)n2)cc1 [Compound 31a, 3-(((4-((4-(Benzo[d][1,3]dioxol-5-yl)pyrimidin-2-yl)amino)phenyl)thio)methyl)quinolin-2(1H)-one] | > 100
O=c1[nH]c2ccc(Cl)cc2cc1CSc1ccc(Nc2nccc(-c3ccc4c(c3)OCO4)n2)cc1 [Compound 31b, 3-(((4-((4-(Benzo[d][1,3]dioxol-5-yl)pyrimidin-2-yl)amino)phenyl)thio)methyl)-6-chloroquinolin-2(1H)-one] | 49.9
COc1ccc2[nH]c(=O)c(CSc3ccc(Nc4nccc(-c5ccc6c(c5)OCO6)n4)cc3)cc2c1 [Compound 31c, 3-(((4-((4-(Benzo[d][1,3]dioxol-5-yl)pyrimidin-2-yl)amino)phenyl)thio)methyl)-6-methoxyquinolin-2(1H)-one] | > 100
O=c1[nH]c2ccccc2cc1CSc1cccc(Nc2nccc(-c3ccc4ccccc4c3)n2)c1 [Compound 35a, 3-(((3-((4-(Naphthalen-2-yl)pyrimidin-2-yl)amino)phenyl)thio)methyl)quinolin-2(1H)-one] | 19.6
O=c1[nH]c2ccc(Cl)cc2cc1CSc1cccc(Nc2nccc(-c3ccc4ccccc4c3)n2)c1 [Compound 35b, 6-Chloro-3-(((3-((4-(naphthalen-2-yl)pyrimidin-2-yl)amino)phenyl)thio)me-thyl)quinolin-2(1H)-one] | 24.6
COc1ccc2[nH]c(=O)c(CSc3cccc(Nc4nccc(-c5ccc6ccccc6c5)n4)c3)cc2c1 [Compound 35c, 6-Methoxy-3-(((3-((4-(naphthalen-2-yl)pyrimidin-2-yl)amino)phenyl)thio)methyl)quinolin-2(1H)-one] | 50.1

Test system: not listed separately
Test: Solubility as observed on handling
Type: physicochemical
Conditions: not given

Compound | solubility (in words)
O=c1[nH]c2ccccc2cc1COc1ccc(Nc2nccc(-c3ccc(Cl)cc3)n2)cc1 [Compound 15, 3-((4-((4-(4-Chlorophenyl)pyrimidin-2-yl)amino)phenoxy)methyl)quinolin-2(1H)-one] | highly insoluble; also recorded: problems related with solubility

Biological target: T1, hLDHA
Test: not given
Set-up: method as in PMID 25466195
Conditions: W31, ligand of complex 4R68; cited from earlier work

Compound | IC50 [µM]
C[C@H](OC(=O)Cc1ccc(Cl)c(SC2=C(O)C[C@@H](c3c(Cl)cccc3Cl)CC2=O)c1)c1ccccc1 [Compound W31] | 0.006
